Assay results taken from publication PMC9413491, “A Novel and Cross-Species Active Mammalian INDY (NaCT) Inhibitor Ameliorates Hepatic Steatosis in Mice with Diet-Induced Obesity” (Metabolites, 2022).
pIC50: −log10 of the molar value.

How the values were obtained:
DIO mice [1] = experiment: 7-day treatment of diet-induced obesity (DIO) mice; assay type: in vivo, mouse; conditions: 15 mg/kg twice daily, 7 days, p < 0.001 pair-fed, p < 0.05 vehicle
human NaCT = target: T1, human NaCT (Homo sapiens, UniProt Q86YT5); experiment: [14C] citrate uptake in HepG2 cells endogenously expressing human NaCT; assay type: cell-based
T1 construct: citrate uptake into HepG2 cells, which endogenously expressed NaCT; host or cells: HepG2
From the text: We determined activity on human NaCT by measuring citrate uptake into HepG2 cells, which endogenously expressed NaCT [37] and for mouse Nact, using HEK293 cells recombinantly expressing mouse Nact (HEK-Nact). We cloned the mouse Slc13a5 cDNA encoding Nact as described previously.
For radiometric [14C] citrate uptake assays, we used Cytostar-T plates (Perkin Elmer#RPNQ0166, Waltham, MA, USA). For each assay, we seeded 20,000 HepG2 cells per well on collagen coated 384-well Cytostar-T plates or 5000 HEK293 cells per well on ploy-D-lysine coated 384-well Cytostar-T plates. On the following day, we changed culture medium to assay buffer: 120 mM NaCl, 5.4 mM KCl, 0.8 mM MgSO4, 5 mM glucose, 1.8 mM CaCl2, 25 mM Hepes, 25 mM MES, pH 6.5 (human) and pH 7.5 (mouse). We preincubated cells with compounds at 37 °C for 20 min, after which we added [14C] citrate (3 µM for HEK cells and 10 µM for HepG2 cells) and incubated cells for 50 min at 37 °C. After cooling down for 15 min at 4 °C, we measured the counts using a Microbeta2 reader system (Perkin Elmer).

DIO mice [2] = experiment: 7-day treatment of diet-induced obesity (DIO) mice; assay type: in vivo, mouse; conditions: 15 mg/kg twice daily, 7 days
Description: We performed in vivo testing in DIO mice (for 7- and 28-day treatment), an established model designed to study high-fat-diet-induced hepatic steatosis and associated cardiometabolic traits. We established DIO in four-week-old C57BL/6N male mice that were fed a high-fat diet (HFD, 60 kcal% fat, D12492; Research Diets, Inc.; New Brunswick, NJ, USA) until 11 weeks of age.
Mice were housed at a temperature of 22–24 °C, with a day/night cycle of 12/12 h (07:00-19:00–07:00) and had access to the appropriate diet and tap water ad libitum. Animals allocated to the pair-feeding group were fed the same amount of food as the corresponding treatment group had consumed the day before. Food was only withdrawn for overnight fasting on the penultimate study day before the section on the final day. We randomised groups of n = 12 for treatment and n = 8 for pair-feeding cage-wise according to random fed blood glucose levels and body weight before the study treatment was started. For all animals, the high-fat diet was started at the same age.
We treated DIO mice with the inhibitor or corresponding vehicle (5% DMSO/10% Cremophor® EL/85% water) twice a day at the same time by oral gavage according to their grouping (5, 15, and 50 mg/kg dose groups, and vehicle control groups). During the study, we measured body weight and blood glucose. We measured glucose concentrations in tail tip blood samples with the “Accu-Chek® Performa” glucometer (Roche, Basel, Switzerland, range <33.3 mmol/L). We determined random fed blood glucose and fasting blood glucose after overnight fasting.
We determined serum beta-hydroxybutyrate with a Beta-Hydroxybutyrate Assay kit, (Sigma-Aldrich, Cat.No. MAK041, St. Louis, MO, USA) following the manufacturer’s instructions. The sample was undiluted, and the volume was 5 µL.
We performed Western blots as described previously. Deviating from that protocol samples were heated for 5 min at 95 °C and blotting time was 1 h at 20 volts. For target protein detection, AMPK alpha (D63G4) Rabbit mAb (Cell Signaling Technology, Inc., Danvers, MA, USA; Cat. No. #5832/3; working dilution 1:1000) and Phospho-AMPK alpha (Thr172) (40H9) Rabbit mAb (Cell Signaling Technology, Inc.; Cat. No. #2535/16; working dilution 1:1000) were used; gel loading was controlled by anti-beta-actin (Sigma-Aldrich, Cat. No. A2228). We detected signals with the SuperSignal West Dura Extended Duration Substrate (Thermo Fisher Scientific; Cat. No. 34076, Waltham, MA, USA).

T1 sequence (Q86YT5 whole entry): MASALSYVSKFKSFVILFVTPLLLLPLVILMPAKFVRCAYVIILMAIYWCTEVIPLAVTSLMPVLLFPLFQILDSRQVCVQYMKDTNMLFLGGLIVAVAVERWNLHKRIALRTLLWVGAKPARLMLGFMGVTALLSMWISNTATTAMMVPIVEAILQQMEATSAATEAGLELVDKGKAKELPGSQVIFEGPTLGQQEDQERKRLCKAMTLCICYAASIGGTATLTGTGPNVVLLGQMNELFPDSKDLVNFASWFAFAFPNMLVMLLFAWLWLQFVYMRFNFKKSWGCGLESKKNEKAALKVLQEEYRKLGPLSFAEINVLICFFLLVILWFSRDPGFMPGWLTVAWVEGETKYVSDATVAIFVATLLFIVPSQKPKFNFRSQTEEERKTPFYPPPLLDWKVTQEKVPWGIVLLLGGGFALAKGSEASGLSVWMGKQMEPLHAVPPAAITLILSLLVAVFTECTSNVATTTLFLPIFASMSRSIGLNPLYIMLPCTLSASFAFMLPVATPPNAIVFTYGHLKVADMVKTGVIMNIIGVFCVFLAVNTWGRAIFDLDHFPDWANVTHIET

O=C(Nc1cc(Cl)cc(C(F)(F)F)c1)OCCC(F)(F)F [ETG-5773]
Plasma β-hydroxybutyrate (β-HBA) concentrations vs pair-fed and vehicle (DIO mice [1]): significantly increased | In vitro activity relative to PF-06649298 (human NaCT; ETG-5773 more active than PF-06649298): more than 100 fold | pIC50 (human NaCT; HepG2, human NaCT, citrate substrate): 6.80 | Liver fat after seven-days treatment (DIO mice [2]): not sufficient to significantly reduce liver fat | Ratio of phosphorylated AMPK to total AMPK in liver vs both control groups (DIO mice [2]; Western blot, p < 0.01): AMPK activation | HOMA-IR change vs vehicle (DIO mice [2]; numerically reduced, p = 0.24): −95% | Fasting serum insulin change vs vehicle (DIO mice [2]; numerically reduced, p = 0.4): −91% | Body weight change vs vehicle control (DIO mice [2]; p < 0.0001): −15% | Fasting blood glucose change vs vehicle (DIO mice [2]; p < 0.0001): −45% | Reduction in fasting blood glucose vs pair-fed vehicle control (DIO mice [2]; p < 0.0001): 36% | Reduction in HOMA-IR vs pair-fed vehicle control (DIO mice [2]; p < 0.05): > 95% | Reduction in fasting serum insulin vs pair-fed vehicle control (DIO mice [2]; p < 0.05): > 95%
